Test results from ChEMBL document CHEMBL1212738, “Phenotypic and genotypic characterization of Enterobacteriaceae with decreased susceptibility to carbapenems: results from large hospital-based surveillance studies in China” (2010).
Converted amounts (≈) assume the structure as drawn.

How the values were obtained:
Enterobacter cloacae [1] = test: Antimicrobial activity against carbapenem-resistant Enterobacter cloacae NJ89 deficient in CTX-M-14, ompC/F by CLSI method; type: functional
Escherichia coli [2] = test: Antimicrobial activity against Escherichia coli ZJ87T expressing KPC-2 by CLSI method; type: functional
Klebsiella pneumoniae [3] = test: Antimicrobial activity against carbapenem-resistant Klebsiella pneumoniae CY1 deficient in SHV-11, DHA-1, ompK35/36 by CLSI method; type: functional
Klebsiella pneumoniae [4] = test: Antimicrobial activity against Klebsiella pneumoniae WH77 expressing IMP-4, TEM-1, SHV-14, CTX-M-3, qnrS1 by CLSI method; type: functional
Klebsiella pneumoniae [5] = test: Antimicrobial activity against Klebsiella pneumoniae FZ47T expressing IMP-8, TEM-1, CTX-M-14, qnrB2, aac(6')-Ib by CLSI method; type: functional
Klebsiella pneumoniae [6] = test: Antimicrobial activity against Klebsiella pneumoniae ZJ18T expressing KPC-2, DHA-1 by CLSI method; type: functional
Klebsiella pneumoniae [7] = test: Antimicrobial activity against Klebsiella pneumoniae ZJ70T expressing KPC-2 by CLSI method; type: functional
Klebsiella pneumoniae [8] = test: Antimicrobial activity against Klebsiella pneumoniae GZ64 expressing IMP-4, ompK35/36 by CLSI method; type: functional
Klebsiella pneumoniae [9] = test: Antimicrobial activity against Klebsiella pneumoniae ZJ99T expressing KPC-2, CTX-M-3, qnrS1 by CLSI method; type: functional
Klebsiella pneumoniae [10] = test: Antimicrobial activity against carbapenem-resistant Klebsiella pneumoniae FZ47 deficient in IMP-8, TEM-1, SHV-11, CTX-M-14, qnrB2, aac(6')-Ib, ompK35/36 by CLSI method; type: functional
Klebsiella pneumoniae [11] = test: Antimicrobial activity against carbapenem-resistant Klebsiella pneumoniae PU4 deficient in SHV-1, DHA-1, ompK35/36 by CLSI method; type: functional
Klebsiella pneumoniae [12] = test: Antimicrobial activity against Klebsiella pneumoniae GZ64T expressing IMP-4 by CLSI method; type: functional
Enterobacter cloacae [13] = test: Antimicrobial activity against carbapenem-resistant Enterobacter cloacae GX56 deficient in ompC and expressing low levels of ompF DE by CLSI method; type: functional
Escherichia coli [14] = test: Antimicrobial activity against carbapenem-resistant Escherichia coli ZJ86 expressing KPC-2, TEM-1 with ompC loss by CLSI method
Klebsiella pneumoniae [15] = test: Antimicrobial activity against carbapenem-resistant Klebsiella pneumoniae PU3 deficient in DHA-1, aac(6')-Ib-cr, ompK35/36 by CLSI method; type: functional
Enterobacter cloacae [16] = test: Antimicrobial activity against carbapenem-resistant Enterobacter cloacae SZ93 deficient in ompC by CLSI method; type: functional
Escherichia coli [17] = test: Antimicrobial activity against carbapenem-resistant Escherichia coli PU96 deficient in TEM-1, CTX-M-14, CMY-2, ompC/F by CLSI method; type: functional
Klebsiella pneumoniae [18] = test: Antimicrobial activity against carbapenem-resistant Klebsiella pneumoniae ZJ68 deficient in CTX-M-15, ompK35/36 by CLSI method
Escherichia coli [19] = test: Antimicrobial activity against Escherichia coli C600 transconjugant SZ62T expressing IMP-4, qnrS1by CLSI method
Klebsiella pneumoniae [20] = test: Antimicrobial activity against carbapenem-resistant Klebsiella pneumoniae GZ66 deficient in SHV-11, DHA-1, ompK35/36 by CLSI method; type: functional
Escherichia coli [21] = test: Antimicrobial activity against carbapenem-resistant Escherichia coli PU60 deficient in TEM-1, CMY-2, ompC/F by CLSI method; type: functional
Klebsiella pneumoniae [22] = test: Antimicrobial activity against carbapenem-resistant Klebsiella pneumoniae PU5 deficient in SHV-12, DHA-1, aac(6')-Ib-cr, ompK35/36 by CLSI method; type: functional
Klebsiella pneumoniae [23] = test: Antimicrobial activity against carbapenem-resistant Klebsiella pneumoniae ZJ69 deficient in SHV-28, ompK35/36 by CLSI method; type: functional
Klebsiella pneumoniae [24] = test: Antimicrobial activity against carbapenem-resistant Klebsiella pneumoniae ZJ70 deficient in KPC-2, SHV-11, CTX-M-14, ompK35/36 by CLSI method; type: functional
Klebsiella pneumoniae [25] = test: Antimicrobial activity against Klebsiella pneumoniae WH97 expressing SHV-33, aac(6')-Ib, ompK35 DE by CLSI method; type: functional
Enterobacter cloacae [26] = test: Antimicrobial activity against carbapenem-resistant Enterobacter cloacae NJ91 deficient in CTX-M-14, ompC/F by CLSI method; type: functional
Escherichia coli [27] = test: Antimicrobial activity against carbapenem-resistant Escherichia coli PU101 deficient in TEM-1, CTX-M-14, CMY-2, ompC by CLSI method; type: functional
Klebsiella pneumoniae [28] = test: Antimicrobial activity against Klebsiella pneumoniae PU104T expressing TEM-1, CTX-M-15 by CLSI method; type: functional
Klebsiella aerogenes = test: Antimicrobial activity against Enterobacter aerogenes PU41T expressing CTX-M-14, DHA-1, qnrS1 by CLSI method; type: functional
Escherichia coli [29] = test: Antimicrobial activity against Escherichia coli C600 transconjugant XJ81T expressing TEM-1, SHV-12, aac(6')-Ib by CLSI method
Citrobacter freundii = test: Antimicrobial activity against Citrobacter freundii SZ63 expressing IMP-4, qnrS1by CLSI method; type: functional
Escherichia coli [30] = test: Antimicrobial activity against Escherichia coli C600 by CLSI method; type: functional
Escherichia coli [31] = test: Antimicrobial activity against Escherichia coli PU102T expressing TEM-1, CTX-M-14, CMY-2 by CLSI method; type: functional

| Compound | MIC (Escherichia coli [2]) | MIC (Klebsiella pneumoniae [5]) | MIC (Klebsiella pneumoniae [6]) | MIC (Klebsiella pneumoniae [7]) | MIC (Klebsiella pneumoniae [8]) | MIC (Klebsiella pneumoniae [10]) | MIC (Klebsiella pneumoniae [11]) | MIC (Klebsiella pneumoniae [12]) | MIC (Enterobacter cloacae [13]) | MIC (Enterobacter cloacae [16]) | MIC (Escherichia coli [17]) | MIC (Klebsiella pneumoniae [20]) | MIC (Escherichia coli [21]) | MIC (Klebsiella pneumoniae [22]) | MIC (Klebsiella pneumoniae [23]) | MIC (Klebsiella pneumoniae [24]) | MIC (Klebsiella pneumoniae [25]) | MIC (Klebsiella pneumoniae [28]) | MIC (Klebsiella aerogenes) | MIC (Citrobacter freundii) | further results |
| --- | --- | --- | --- | --- | --- | --- | --- | --- | --- | --- | --- | --- | --- | --- | --- | --- | --- | --- | --- | --- | --- |
| C[C@@H](O)[C@H]1C(=O)N2C(C(=O)O)=C(SCCNC=N)C[C@H]12 [IMIPENEM ANHYDROUS] | 8 µg/mL (≈ 26.7 µM) | 4 µg/mL (≈ 13.4 µM) | 2 µg/mL (≈ 6.68 µM) | 16 µg/mL (≈ 53.4 µM) | 16 µg/mL (≈ 53.4 µM) | 8 µg/mL (≈ 26.7 µM) | 16 µg/mL (≈ 53.4 µM) | 2 µg/mL (≈ 6.68 µM) | 4 µg/mL (≈ 13.4 µM) | 4 µg/mL (≈ 13.4 µM) | 32 µg/mL (≈ 107 µM) | 32 µg/mL (≈ 107 µM) | 32 µg/mL (≈ 107 µM) | 16 µg/mL (≈ 53.4 µM) | 32 µg/mL (≈ 107 µM) | > 256 µg/mL | 2 µg/mL (≈ 6.68 µM) | 0.25 µg/mL (≈ 0.835 µM) | 0.5 µg/mL (≈ 1.67 µM) | 4 µg/mL (≈ 13.4 µM) | MIC (Enterobacter cloacae [1]): 16 µg/mL (≈ 53.4 µM); MIC (Klebsiella pneumoniae [3]): 32 µg/mL (≈ 107 µM); MIC (Klebsiella pneumoniae [4]): 2 µg/mL (≈ 6.68 µM); MIC (Klebsiella pneumoniae [9]): 16 µg/mL (≈ 53.4 µM); MIC (Escherichia coli [14]): 8 µg/mL (≈ 26.7 µM); MIC (Klebsiella pneumoniae [15]): 32 µg/mL (≈ 107 µM); MIC (Klebsiella pneumoniae [18]): 4 µg/mL (≈ 13.4 µM); MIC (Escherichia coli [19]): 4 µg/mL (≈ 13.4 µM); MIC (Enterobacter cloacae [26]): 16 µg/mL (≈ 53.4 µM); MIC (Escherichia coli [27]): 32 µg/mL (≈ 107 µM); MIC (Escherichia coli [29]): 0.25 µg/mL (≈ 0.835 µM) |
| C[C@@H](O)[C@H]1C(=O)N2C(C(=O)O)=C(S[C@@H]3CN[C@H](C(=O)N(C)C)C3)[C@H](C)[C@H]12 [MEROPENEM] | 8 µg/mL (≈ 20.9 µM) | 1 µg/mL (≈ 2.61 µM) | 1 µg/mL (≈ 2.61 µM) | 8 µg/mL (≈ 20.9 µM) | 8 µg/mL (≈ 20.9 µM) | 2 µg/mL (≈ 5.22 µM) | 4 µg/mL (≈ 10.4 µM) | 2 µg/mL (≈ 5.22 µM) | 4 µg/mL (≈ 10.4 µM) | 0.125 µg/mL (≈ 0.326 µM) | 8 µg/mL (≈ 20.9 µM) | 4 µg/mL (≈ 10.4 µM) | 8 µg/mL (≈ 20.9 µM) | 8 µg/mL (≈ 20.9 µM) | 4 µg/mL (≈ 10.4 µM) | 256 µg/mL (≈ 668 µM) | 2 µg/mL (≈ 5.22 µM) | 0.032 µg/mL (≈ 0.0834 µM) | 0.032 µg/mL (≈ 0.0834 µM) | 4 µg/mL (≈ 10.4 µM) | MIC (Escherichia coli [30]): 0.03 µg/mL (≈ 0.0782 µM); MIC (Escherichia coli [31]): 0.032 µg/mL (≈ 0.0834 µM); MIC (Escherichia coli [14]): 8 µg/mL (≈ 20.9 µM); MIC (Klebsiella pneumoniae [18]): 8 µg/mL (≈ 20.9 µM); MIC (Escherichia coli [19]): 4 µg/mL (≈ 10.4 µM) |
| POLYMYXIN B | 0.25 µg/mL | 0.25 µg/mL | 0.25 µg/mL | 0.25 µg/mL | 0.5 µg/mL | 1 µg/mL | 0.5 µg/mL | 0.5 µg/mL | 0.5 µg/mL | > 32 µg/mL | 0.5 µg/mL | 0.5 µg/mL | 0.5 µg/mL | 1 µg/mL | 1 µg/mL | 0.5 µg/mL | 0.5 µg/mL | 0.25 µg/mL | 0.25 µg/mL | 0.5 µg/mL | MIC (Enterobacter cloacae [1]): 0.5 µg/mL; MIC (Klebsiella pneumoniae [3]): 1 µg/mL; MIC (Klebsiella pneumoniae [4]): 1 µg/mL; MIC (Escherichia coli [30]): 0.5 µg/mL; MIC (Escherichia coli [31]): 0.25 µg/mL; MIC (Klebsiella pneumoniae [9]): 0.25 µg/mL; MIC (Klebsiella pneumoniae [15]): 0.5 µg/mL; MIC (Enterobacter cloacae [26]): 0.5 µg/mL; MIC (Escherichia coli [27]): 0.5 µg/mL |
